For the assay, the system named is M. tuberculosis H37Rv growth inhibition, 7H9 media. In words: M. tuberculosis growth inhibition, HTS (AID 449762).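 As to all read-outs here: bacterial growth assessed after seven days of incubation.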 The conditions noted are these: for IC90: measured here: IC90 growth inhibition.

pIC50: −log10 of the molar value. Inconclusive results are not listed.

Take `O=C1CC(=C(c2ccccc2)c2ccccc2)C(=O)N1CCCCN1CCN(c2ccccc2)CC1`: the negative-log IC50 (pIC50) was 4.64 and the IC90 worked out at 26 µM.

As to `COc1nn(-c2ccccc2)c(=O)c(Cl)c1Cl`, the negative logarithm of the IC50 (pIC50) is 5.26 and the IC90 is 9.06 µM.

With `Cc1cc2c(cc1C)CSC(c1c(O)ccc3ccccc13)SC2`, the pIC50 is 4.34 and the 90% effect concentration (IC90) is above 100 µM.

Consider `O=C1c2cccc3c([N+](=O)[O-])ccc(c23)C(=O)N1O`, for which the pIC50 was 5.09 and the 90% effect concentration (IC90) stood at 13.8 µM.

Turning to `CCCC(/C=C/c1ccc(OC(C)=O)cc1)=C1/c2ccccc2C(=O)N1c1ccccc1`, the pIC50 is 5.09 and the IC90 was 16.1 µM.

In the case of `COc1cc(C)ccc1S(=O)(=O)N1CCN(C23CC4CC(CC(C4)C2)C3)CC1`, the negative-log IC50 (pIC50) is 4.54 and the IC90 is 44 µM.

In the case of `Cc1c(Cl)c([N+](=O)[O-])nn1Cc1ccc(C(=O)N/N=C\c2cccc(Br)c2)o1`, the negative logarithm of the IC50 (pIC50) is 4.18 and the concentration for an effect of 90% (IC90) is above 100 µM.

As for `CCOC(=O)CSc1snnc1-c1ccccc1`, the negative-log IC50 (pIC50) was 4.86 and the concentration for an effect of 90% (IC90) amounted to 59.6 µM.

For `Cc1cc(NC2CCCCC2)nc(-c2ccccc2O)n1`, the pIC50 is 4.41 and the IC90 stood at 51.3 µM.

Take `COc1ccc(Cc2nc3ccc(C(=O)NCCCSC)cc3o2)cc1OC`: the negative logarithm of the IC50 (pIC50) is 4.39 and the IC90 is above 100 µM.

Regarding `CCc1cccc2c(C(=O)CCl)c[nH]c12`, the negative-log IC50 (pIC50) was 6.11 and the IC90 is 3.18 µM.

Regarding `Cc1ccc(C)c(N/C(N)=N/c2nc(C)cc(C)n2)c1`, the negative logarithm of the IC50 (pIC50) is 5.23 and the concentration for an effect of 90% (IC90) amounted to 6.72 µM.

Turning to `COc1ccc(C2=NN(C(=O)COC(=O)c3ccc(S(C)(=O)=O)c([N+](=O)[O-])c3)C(c3ccco3)C2)cc1` (stereo unspecified), the pIC50 was 5.18 and the IC90 was 14.9 µM.

`Clc1ccc(CNc2nc(CN3CCOCC3)nc3scc(-c4ccccc4)c23)cc1`: the pIC50 was 4.76 and the 90% effect concentration (IC90) was 43.6 µM.

Turning to `O=C(Nc1ccc(-n2cccc2)cc1)C1CC1`, the pIC50 is 5.74 and the IC90 was above 100 µM.

Turning to `O=C(c1cc(COc2ccc(F)cc2F)on1)N1CCCC(c2ccccc2)C1` (stereo unspecified), the pIC50 was 4.75 and the concentration for an effect of 90% (IC90) came to 39.8 µM.

As for `CC[n+]1c(/C=C/N(C)c2ccccc2)n(-c2ccccc2)c2ccc(-c3nc4ccccc4s3)cc21`, the pIC50 was 6.06 and the IC90 worked out at 1.27 µM.

As to `Clc1ccc(C(Cn2ccnc2)OCc2csc3c(Cl)cccc23)c(Cl)c1` (stereo unspecified), the pIC50 is 4.80 and the concentration for an effect of 90% (IC90) is 24.8 µM.

As to `Cc1ccc(-c2csc(N3CCN(CCCn4c(-c5ccncc5)nc5ccccc54)CC3)n2)cc1`, the pIC50 was 4.63 and the 90% effect concentration (IC90) is 26.5 µM.

In the case of `CN(/N=C/c1cc(Br)cc(Br)c1O)c1cccc(C(F)(F)F)n1`, the pIC50 is 5.41 and the concentration for an effect of 90% (IC90) is 7.43 µM.

Turning to `COc1ccc(-c2cn(Cc3ccc(C(=O)NCc4ccc(C)cc4)cc3)c(C(C)N)n2)cc1` (stereo unspecified), the pIC50 is 4.33 and the 90% effect concentration (IC90) turned out to be 53.2 µM.

For `CC(C)c1ccc2c(c1)CCC1C(C)(CN)CCCC21C` (stereo unspecified), the pIC50 was 4.80 and the 90% effect concentration (IC90) stood at 25.6 µM.

In the case of `Cc1cc(C)n(-c2nc(NCCN(C)C)c3c4c(sc3n2)CCCC4)n1`, the pIC50 was 4.84 and the IC90 worked out at 18.6 µM.

Take `O=C(NC(=S)Nc1cccc2cccnc12)c1ccccc1`: the negative logarithm of the IC50 (pIC50) is 4.83 and the IC90 is above 100 µM.

`O=C(OCc1ccccc1F)c1cnc(Cl)c(Cl)c1`: the pIC50 is 4.88 and the 90% effect concentration (IC90) came out at 49.8 µM.

In the case of `Cc1ccc(/C(N)=N/OC(=O)N2c3ccccc3Sc3ccccc32)cc1`, the pIC50 is 4.28 and the IC90 was above 100 µM.

On to `CC(C)(C)c1ccc(Cn2c(=N)n(CC(O)c3ccco3)c3ccccc32)cc1` (stereo unspecified), for which the pIC50 is 4.75 and the IC90 was determined as 22.2 µM.

`Cc1cc(=O)n2cccc(O)c2n1`: the pIC50 is 5.23 and the IC90 amounted to 15.6 µM.

In the case of `Nc1[nH]n2c(=O)cc(-c3ccccc3)nc2c1N=Nc1ccc2c(c1)OCO2`, the pIC50 was 4.63 and the concentration for an effect of 90% (IC90) was 26.6 µM.

In the case of `CCN1/C(=C/c2ccc3cc(C)ccc3[n+]2CC)Sc2ccccc21`, the negative-log IC50 (pIC50) was 5.85 and the concentration for an effect of 90% (IC90) was found to be 1.61 µM.

Regarding `Cc1ccc(C)c(-c2nnc(NC(=O)C3=COCCO3)o2)c1`, the pIC50 was 5.27 and the IC90 was found to be 12.2 µM.

For the molecule `CCc1noc(C)c1C(=O)Nc1nc(-c2ccc(F)cc2)c(C)s1`, the negative-log IC50 (pIC50) is 5.06 and the IC90 was 36.9 µM.

Take `O=C(Oc1ccc(-c2cn3c(n2)SCC3)cc1)c1ccccc1`: the pIC50 was 4.42 and the concentration for an effect of 90% (IC90) is above 100 µM.

For `COc1ccc(C[C@H](N)C(=O)N[C@H]2[C@@H](O)[C@H](n3cnc4c(N(C)C)ncnc43)O[C@@H]2CO)cc1`, the pIC50 is 5.50 and the IC90 was 3.54 µM.

For `COc1ccc(CN2CCN(C(c3ccc(F)cc3)c3ccc(F)cc3)CC2)c(OC)c1OC`, the pIC50 was 4.63 and the IC90 is 26.3 µM.

With `Cc1ccc(-n2cc(CN(C)Cc3nccn3C)c(-c3cccc(C)c3)n2)cc1`, the negative logarithm of the IC50 (pIC50) is 5.02 and the IC90 was determined as 13.3 µM.

On to `O=C(c1ccccc1)c1ccc(OCCOCCN2CCN(Cc3ccccc3)CC2)cc1`, for which the pIC50 was 4.63 and the IC90 came to 37.5 µM.

As to `CCOC(=O)N1CCN(C(=O)CSc2nnc(-c3ccc(Cl)s3)o2)CC1`, the negative-log IC50 (pIC50) is 4.88 and the IC90 came to 34.1 µM.

With `CCOC(=O)c1cc(-c2ccc(N3CCOCC3)cc2)nn1-c1ccccc1`, the pIC50 is 4.87 and the IC90 turned out to be 45.2 µM.

For `O=C(NCC(c1cccs1)N1CCOCC1)c1cc([N+](=O)[O-])cc([N+](=O)[O-])c1` (stereo unspecified), the pIC50 was 6.14 and the concentration for an effect of 90% (IC90) was found to be 0.81 µM.

Take `CCOC(=O)c1sc2nc(C)nc(SC(C)C(=O)N(C)c3ccccc3)c2c1C` (stereo unspecified): the negative logarithm of the IC50 (pIC50) is 4.46 and the IC90 turned out to be 46.5 µM.

As to `OC(COC(c1ccc(Cl)cc1)c1ccc(Cl)cc1)CN1CCc2ccccc2C1` (stereo unspecified), the negative-log IC50 (pIC50) is 4.73 and the 90% effect concentration (IC90) worked out at 24.7 µM.

For `C=C(C)C1Cc2c(C)nn(-c3nc(C)cc(C)n3)c2C1` (stereo unspecified), the pIC50 is 5.57 and the IC90 was 6.74 µM.

Consider `COc1ccc(C2(c3ccc(OC)cc3)NC(=O)N(CC(=O)Nc3ccc(OC(F)F)cc3)C2=O)cc1`, for which the pIC50 was 4.52 and the IC90 is 79.9 µM.

With `Cc1ccc(O)c(C(=O)CC(=O)c2ccccc2Cl)c1`, the negative logarithm of the IC50 (pIC50) was 4.97 and the IC90 turned out to be 40.1 µM.

As to `COc1ccc(NC(=O)/C(Cl)=C(/Cl)S(=O)Cc2ccc(C)cc2)cn1` (stereo unspecified), the pIC50 was above 6.70 and the IC90 is below 0.2 µM.

`COc1ccc(C2c3[nH]c4ccccc4c3CCN2Cc2cccn2-c2ncccn2)cc1C` (stereo unspecified): the pIC50 is 4.60 and the IC90 worked out at 28.9 µM.

On to `Cc1cc(C(=O)CCl)c(C)n1-c1cccc([N+](=O)[O-])c1`, for which the negative logarithm of the IC50 (pIC50) was above 6.70 and the IC90 is 1.54 µM.

`CSCCC(=O)N1CCCC(CNC(=O)c2ccc(-c3ccccc3)cc2)C1` (stereo unspecified): the pIC50 was 4.41 and the IC90 is 87.8 µM.

`CS(=O)(=O)c1nc(-c2ccccc2)cc(C(F)(F)F)n1`: the pIC50 is 5.18 and the IC90 amounted to 18.7 µM.

For `CCc1nc(N2CCN(C(C)=O)CC2)c2c3c(sc2n1)CC(C(C)(C)C)CC3` (stereo unspecified), the negative logarithm of the IC50 (pIC50) is 4.89 and the 90% effect concentration (IC90) worked out at 14.1 µM.

Turning to `CCOc1ccc(NC(=O)CSc2nc(O)c(C)c(=O)n2-c2ccc(F)cc2)cc1`, the pIC50 is 5.07 and the IC90 worked out at 20.3 µM.

With `COc1ccc(OC)c(Nc2nc(-c3sc(C)nc3C)cs2)c1`, the pIC50 was 4.29 and the 90% effect concentration (IC90) is above 100 µM.

Regarding `Cc1c(Cl)ccc2sc(N3CCN(C(=O)C4=COCCO4)CC3)nc12`, the negative logarithm of the IC50 (pIC50) is 4.58 and the IC90 came out at 59 µM.

Regarding `COCCNC(=S)N/N=C(\C)c1ccc(OC)cc1`, the pIC50 was 4.39 and the concentration for an effect of 90% (IC90) was 49.4 µM.

`C[N+](C)(CCCCCC[N+](C)(C)CCCN1C(=O)c2cccc3cccc(c23)C1=O)CCCN1C(=O)c2cccc3cccc(c23)C1=O`: the negative logarithm of the IC50 (pIC50) was 5.59 and the concentration for an effect of 90% (IC90) turned out to be 3.72 µM.

For the molecule `COc1cc(/C=C(\C#N)c2nc3c(s2)CC(C)CC3)ccc1O` (stereo unspecified), the pIC50 is 4.50 and the IC90 is 63.5 µM.

As for `CC(C)OC(=O)CSc1nc2ccccc2s1`, the pIC50 is 4.91 and the IC90 was found to be 33.6 µM.

Take `CCCc1ccc(C2=Nn3c(nnc3C(C)C)SC2)cc1`: the negative-log IC50 (pIC50) is 4.73 and the concentration for an effect of 90% (IC90) is 29.7 µM.

As for `CC(C)=CCOc1ccc([C@@H]2COc3c(ccc4c3C=CC(C)(C)O4)C2)c(O)c1`, the negative-log IC50 (pIC50) is 5.32 and the IC90 came to 7.77 µM.

With `CC(Sc1nnc(NC2CCCCC2)s1)C(=O)Nc1ccc2c(c1)C(=O)c1ccccc1C2=O` (stereo unspecified), the negative logarithm of the IC50 (pIC50) is 4.94 and the concentration for an effect of 90% (IC90) stood at 12.6 µM.

For `COc1ccc(-c2nnc3sc(C4CCCCC4)nn23)cc1OC`, the pIC50 is 4.44 and the IC90 is 55.3 µM.

As for `c1ccc(-c2ccc(C(c3ccccc3)n3ccnc3)cc2)cc1` (stereo unspecified), the negative-log IC50 (pIC50) was 4.71 and the concentration for an effect of 90% (IC90) was 31.7 µM.

`CC(C(c1ccc2c(c1)OCO2)c1c(N)n(C)c(=O)n(C)c1=O)[N+](=O)[O-]` (stereo unspecified): the negative logarithm of the IC50 (pIC50) was 5.60 and the IC90 is 6.08 µM.

For the molecule `Nc1c(C(=O)O)cnc2c(-c3ccc(Cl)cc3)cnn12`, the pIC50 is 4.59 and the IC90 was determined as 55.6 µM.

With `Cc1ccccc1C1C(C#N)=C2N=C(N)c3c(sc4c3CCCCC4)N2C2=C1C(=O)CC(C)(C)C2` (stereo unspecified), the IC90 is above 100 µM.

For `Clc1ccc2c(c1)CCc1cccnc1C2=C1CCNCC1`, the pIC50 is 4.57 and the IC90 stood at 31.3 µM.

As to `CCc1nnc(N/N=C/c2cc(C)c(C)cc2C)n1N`, the negative-log IC50 (pIC50) was 5.14 and the concentration for an effect of 90% (IC90) was determined as 16 µM.

`Cc1ccc(-c2csc3ncnc(Nc4ccc(N5CCOCC5)cc4)c23)cc1`: the pIC50 was 4.73 and the 90% effect concentration (IC90) worked out at 50.1 µM.

With `Cc1ccc(Nc2nc(CSc3nnc(-c4cccs4)o3)cs2)cc1`, the pIC50 was 4.39 and the 90% effect concentration (IC90) was above 100 µM.

On to `O=C(Nc1nnc(-c2ccccc2)o1)c1cc(-c2cccs2)nc2ccccc12`, for which the negative-log IC50 (pIC50) is 6.05 and the 90% effect concentration (IC90) stood at 2.25 µM.

As a reminder, the pIC50 is the negative decadic logarithm of the IC50, by convention in mol/L. The IC90 is the point of the concentration-response curve where the effect stands at 90%.

The values are drawn from PubChem BioAssay AID449762 (Southern Research Specialized Biocontainment Screening …, 2010).
